Patent US11932870B2, “Compositions and methods for immune cell modulation in adoptive immunotherapies” (Fate Therapeutics, Inc., priority 2016, dated 2024)
Counter-ions that a name gives are not always drawn.

Key:
viable CD4+ population = assay: T cell compound screen: CCR7+CD62L+ cells in the viable CD4+ population (flow cytometry); format: cell-based, human; settings: 10 μM, about 6 days; for CD4 Hit: anti-CD3/anti-CD28 beads, hit = Z-score > +2 for percent or absolute number CCR7+CD62L+ in CD4+; for number or ratio of cells co-expressing CCR7 and CD62L: viable CD4+ population
Source text: (§1) In Vitro T Cell Culture. Fresh leukopaks (AllCells, Alameda, CA) were obtained from healthy donors, from which T cells were negatively selected using the EasySep Human T cell Enrichment Kit (Stem Cell Technologies, Vancouver, Canada). The freshly isolated T cells were aliquoted and cryopreserved. On the day the screens were initiated, T cells were thawed and washed into X-Vivo 15 with 5% human AB serum, IL-2, pen/strep, and additional supplements. Cells were dispensed into flat-bottom 384-well plates at 5×10^5 cells/ml with anti-CD3/anti-CD28 beads. Individual compounds were added at a final concentration of 10 μM to each well from column 3 to column 22 of each plate. Positive and negative controls were added to additional wells. Cells were incubated for about 6 days at 37 degrees with 5% CO2.
(§2) Flow Cytometry. On Day 6 of culture, cells were stained with a fixable viability marker and fluorophore-conjugated antibodies: CD3, CD4, CD8, CD45RA, CD45RO, CD62L, CCR7, CD27, and CD122 (BD Biosciences, San Jose, CA; and BioLegend, San Diego, CA). Fluorescent absolute counting beads (Spherotech, Lake Forest, IL) were added just prior to acquisition. Data acquisition was performed on a BD Fortessa X-20 (BD Biosciences) and data were analyzed using Treestar software (FlowJo, Ashland, OR) and Spotfire (Tibco, Boston, MA).
(§3) These cells are characterized by expression of CCR7 and CD62L. Therefore, cells co-expressing both of these identifying markers were evaluated. Within the viable CD4+ population and viable CD8+ population, the percent of cells co-expressing CCR7 and CD62L was determined. The expression of either CD62L or CCR7 on T cells, as indicative of the desired T cell subsets, have been described as having favorable functional characteristics for CAR-T cell therapy, and potentially other adoptive T cell therapies.
(§4) The number of events in each of these gates relative to the number of absolute counting beads in each sample was calculated, defining a measure of the absolute number of naïve, stem cell memory, or central memory T cells within the CD4+ and/or CD8+ populations. A z-Score relative to the screened compound samples within each 384-well plate was calculated for each of these four values: 1) percent CCR7+CD62L+in CD4+, 2) percent CCR7+CD62L+in CD8+, 3) absolute relative number of CCR7+CD62L+in CD4+, and 4) absolute number of CCR7+CD62L+in CD8+(FIGS. 1A and 1i). Z-scores were also calculated for the percent viability of all cells within each sample and the relative absolute number of cells within each sample. A “Z-Score” is a statistical measurement of a score's relationship to the mean in a group of scores. AZ-score of 0 means the score is the same as the mean. AZ-score can also be positive or negative, indicating whether it is above or below the mean and by how many standard deviations.

viable CD8+ population = assay: T cell compound screen: CCR7+CD62L+ cells in the viable CD8+ population (flow cytometry); format: cell-based, human; settings: 10 μM, about 6 days; for CD8 Hit: anti-CD3/anti-CD28 beads, hit = Z-score > +2 for percent or absolute number CCR7+CD62L+ in CD8+; for number or ratio of cells co-expressing CCR7 and CD62L: viable CD8+ population
Source text: as §1, §2, §3, §4

Compound | CD4 Hit (viable CD4+ population) | number or ratio of cells co-expressing CCR7 and CD62L (viable CD4+ population) | CD8 Hit (viable CD8+ population) | number or ratio of cells co-expressing CCR7 and CD62L (viable CD8+ population)
CCC(CO)Nc1nc(NCc2ccccc2)c2ncn(C(C)C)c2n1 (stereo in doubt) [Roscovitine, (S)-Isomer] | CD4 | increased | – | –
CCCc1c(-c2ccc(O)cc2)nn(-c2ccc(O)cc2)c1-c1ccc(O)cc1 [1,3,5-tris(4-hydroxyphenyl)-4-propyl-1H-pyrazole] | CD4 | increased | – | –
N.S=C(S)N1CCCC1 [1-Pyrrolidinecarbodithioic acid, ammonium salt] | CD4 | increased | – | –
CN(C)[C@@H]1C(=O)C(C(N)=O)=C(O)[C@@]2(O)C(=O)C3=C(O)c4c(O)ccc(Cl)c4[C@@H](O)[C@H]3C[C@@H]12.Cl [2-Naphthacenecarboxamide, 7-chloro-4-(dimethylamino)-1,4,4a,5,5a,6,11,12a-octahy] | – | – | CD8 | increased
Nc1ncn([C@@H]2O[C@H](CO)[C@@H](O)[C@H]2O)c(=O)n1 [5-Azacytidine] | CD4 | increased | CD8 | increased
Sc1ncnc2nc[nH]c12 [6-Mercaptopurine] | CD4 | increased | CD8 | increased
Oc1c(Cl)cc(Cl)c2cccnc12 [8-Quinolinol, 5,7-dichloro-] | CD4 | increased | CD8 | increased
Oc1c(I)cc(Cl)c2cccnc12 [8-Quinolinol, 5-chloro-7-iodo-] | CD4 | increased | CD8 | increased
CC[n+]1c(/C=C/C=C2/N(C)c3ccccc3C2(C)C)sc2ccccc21.[I-] [AC-93253 iodide] | CD4 | increased | CD8 | increased
COc1ccc(-c2cc3nccn3c(Nc3ncccc3C(N)=O)n2)cc1OC [BAY 61-3606] | CD4 | increased | – | –
COc1cc2nc(N3CCCN(C)CC3)nc(NC3CCN(Cc4ccccc4)CC3)c2cc1OC [BIX01294] | CD4 | increased | – | –
O=C(O)CN(CCN(CC(=O)O)CC(=O)O)CCN(CC(=O)O)CC(=O)O [Diethylenetriaminepentaacetic acid, pentasodium] | CD4 | increased | CD8 | increased
CC[N+](C)(C)c1cccc(O)c1 [Edrophonium chloride] | – | – | CD8 | increased
C[C@]12CC[C@@H]3c4ccc(O)cc4C[C@@H](CCCCCCCCC[S+]([O-])CCCC(F)(F)C(F)(F)F)[C@H]3[C@@H]1CC[C@@H]2O (stereo partly drawn) [Fulvestrant] | – | – | CD8 | increased
CC(C)C1CCC2(CO2)C2C(=O)OCC(C(=O)O)=CC12 (stereo not drawn) [Heptelidic acid] | CD4 | increased | CD8 | increased
O=C(N/N=C/c1ccc([N+](=O)[O-])o1)c1ccc(O)cc1 [Nifuroxazide] | – | – | CD8 | increased
C=CCc1cccc(/C=N/NC(=O)CN2CCN(Cc3ccccc3)CC2)c1O [PAC-1] | CD4 | increased | – | –
Oc1cccc(-c2nc(N3CCOCC3)c3oc4ncccc4c3n2)c1 [PI-103] | CD4 | increased | CD8 | increased
C=CC1=C(C)c2cc3[nH]c(cc4nc(cc5[nH]c(cc1n2)c(C)c5CCC(=O)O)C(CCC(=O)O)=C4C)c(C)c3C=C [Protoporphyrin IX disodium] | CD4 | increased | – | –
CN(C)c1ccc(C=C2C(=O)Nc3ccccc32)cc1 [SU 4312] | – | – | CD8 | increased
CN[C@H]1CC[C@@H](c2ccc(Cl)c(Cl)c2)c2ccccc21 [Sertraline] | CD4 | – | CD8 | –
CCCc1nc2c(C)cc(-c3nc4ccccc4n3C)cc2n1Cc1ccc(-c2ccccc2C(=O)O)cc1 [Telmisartan] | CD4 | increased | – | –
CC(C)(C)c1ccc(C(O)CCCN2CCC(C(O)(c3ccccc3)c3ccccc3)CC2)cc1 (stereo not drawn) [Terfenadine] | CD4 | increased | – | –
C/C=C(/C)C(=O)O[C@H]1C(C)=C2[C@H]([C@@H]1OC(=O)CCCCCCC)[C@@](C)(OC(C)=O)C[C@H](OC(=O)CCC)[C@@]1(O)[C@H]2OC(=O)[C@@]1(C)O [Thapsigargin] | – | – | CD8 | increased
O=C(O)Cc1cc(I)c(Oc2ccc(O)c(I)c2)c(I)c1 [Tiratricol] | CD4 | increased | CD8 | increased
NC1CCN(c2nc3c(cc2F)c(=O)c(C(=O)O)cn3-c2ccc(F)cc2F)C1 (stereo not drawn) [Tosufloxacin hydrochloride] | CD4 | increased | – | –
N#CC(=C(/N)Sc1ccccc1N)/C(C#N)=C(\N)Sc1ccccc1N [U0126] | CD4 | increased | – | –
